Literature values as cited in patent US20140329781A1, “METHODS FOR TREATING CARDIOVASCULAR DISORDER” (WOCKHARDT LIMITED, priority 2011, published 2014).

Tests used:
[1] = water
albumin = albumin (Homo sapiens, UniProt P02768)
Chain of albumin (P02768 25-609, species assumed): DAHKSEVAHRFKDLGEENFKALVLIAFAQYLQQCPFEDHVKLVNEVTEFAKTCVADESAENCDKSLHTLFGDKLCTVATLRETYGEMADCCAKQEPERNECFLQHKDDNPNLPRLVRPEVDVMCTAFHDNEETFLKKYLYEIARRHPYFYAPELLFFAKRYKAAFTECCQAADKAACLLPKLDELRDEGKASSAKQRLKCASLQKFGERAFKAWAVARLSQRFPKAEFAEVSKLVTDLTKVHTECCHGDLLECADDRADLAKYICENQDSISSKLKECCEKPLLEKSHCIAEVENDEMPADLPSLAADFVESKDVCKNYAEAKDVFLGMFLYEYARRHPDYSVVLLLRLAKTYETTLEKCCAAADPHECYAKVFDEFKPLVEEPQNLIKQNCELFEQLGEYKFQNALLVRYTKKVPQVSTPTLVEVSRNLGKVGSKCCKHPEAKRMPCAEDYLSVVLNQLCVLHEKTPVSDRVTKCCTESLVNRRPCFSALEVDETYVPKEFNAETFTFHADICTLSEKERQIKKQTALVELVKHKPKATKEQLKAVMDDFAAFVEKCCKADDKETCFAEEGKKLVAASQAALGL

bioavailability (in words) (extensive first pass metabolism in the liver) | solubility (in words) [1] | protein bound to albumin (albumin) | bioavailability (incomplete due to extensive first pass metabolism) | SMILES
low | poorly water-soluble | 94-98% | – | COC(=O)[C@H](c1ccccc1Cl)N1CCc2sccc2C1 [Clopidogrel]
– | highly soluble | – | about 50% | COCCc1ccc(OCC(O)CNC(C)C)cc1 (centres unmarked) [Metoprolol]
